Test results reported in patent US11648254B2 (Kumquat Biosciences Inc., priority 2021, dated 2023).
Read-outs that look alike come from different tables or passages of the source.

Columns and labels:
SOS1 = SOS1 (Homo sapiens (Human), UniProt Q07889); assay: Ras-SOS interaction assay (HTRF); type: biochemical
[1] = test system: MIA PaCa-2 cells (K-Ras G12C); assay: Ras-SOS cellular growth inhibition assay (CellTiter-Glo, 3D); type: cell-based; settings: Homo sapiens
In short: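 MIA PaCa-2 cells grown in ultra-low-attachment plates (3D) in DMEM/Ham's F12 with 10% FCS and 2.5% horse serum, treated the day after seeding with a 9-point 3-fold compound series for about 5 days. Viability by CellTiter-Glo luminescence; IC50 from four-parameter fit.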

[2] = test system: NCI-H1975 cells (EGFR T790M L858R); assay: EGFR-SOS cellular inhibition assay (CellTiter-Glo, 3D); type: cell-based; settings: Homo sapiens
[3] = K-RasG13D utilized, read-out: IC50 inhibition of SOS
[4] = K-RasG13D, read-out: IC50 value against SOS1
[5] = MIA PaCa-2, 120 h, MIA PaCa-2, 3D proliferation, about 5 days, read-out: Bio-Cell-Prolif-3D (MiaPaca2 IC50)
[6] = MIA PaCa-2, MIA PaCa-2, read-out: IC50 in inhibiting MIA PaCa-2 cell growth
[7] = 120 h, NCI-H1975, 3D proliferation, about 5 days, read-out: Bio-Cell-Prolif-3D (H1975 IC50)
[8] = NCI-H1975, EGFR T790M L858R, read-out: IC50 in inhibiting growth of NCI-H1975 cell line

Chain of SOS1 (Q07889 564-1049): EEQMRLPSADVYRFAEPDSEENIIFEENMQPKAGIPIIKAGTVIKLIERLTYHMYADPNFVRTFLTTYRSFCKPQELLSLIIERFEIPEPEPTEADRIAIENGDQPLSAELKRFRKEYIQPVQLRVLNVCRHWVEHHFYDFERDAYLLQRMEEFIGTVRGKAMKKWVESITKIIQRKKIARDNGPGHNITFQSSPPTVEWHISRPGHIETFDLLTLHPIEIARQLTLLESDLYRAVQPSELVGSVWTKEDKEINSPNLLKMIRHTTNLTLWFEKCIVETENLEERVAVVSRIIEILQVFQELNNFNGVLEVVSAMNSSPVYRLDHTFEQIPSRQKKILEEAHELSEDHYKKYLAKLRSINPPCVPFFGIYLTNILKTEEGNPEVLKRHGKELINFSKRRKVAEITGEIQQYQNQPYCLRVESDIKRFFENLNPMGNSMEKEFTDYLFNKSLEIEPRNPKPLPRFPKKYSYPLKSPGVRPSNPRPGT

IC50 (SOS1; [3]) [nM]	IC50 (SOS1; [4]) [nM]	IC50 [1, 5] [nM]	IC50 [1, 6] [nM]	IC50 [2, 7] [nM]	IC50 [2, 8] [nM]	Structure (SMILES)
< 100	< 50	≤ 1000	< 500	≤ 1000	< 500	COc1nc2ncnc(N[C@H](C)c3cccc(C(F)(F)C4CCN(C(C)C)CC4)c3F)c2cc1N1CCN(C(C)C)CC1 [Compound 263, (R)—N-(1-(3-(difluoro(1-isopropylpiperidin-4-yl)methyl)-2-fluorophenyl)ethyl)-6-(4-isopropylpiperazin-1-yl)-7-methoxypyrido[2,3-d]pyrimidin-4-amine]
< 100	< 50	≤ 1000	< 500	≤ 1000	< 500	C[C@H](O)C(F)(F)c1cccc([C@@H](C)Nc2ncnc3nc(Cl)c(C4(C#N)CC4)cc23)c1 [Compound 265, 1-(7-chloro-4-(((R)-1-(3-((S)-1,1-difluoro-2-hydroxypropyl)phenyl)ethyl)amino)pyrido[2,3-d]pyrimidin-6-yl) cyclopropane-1-carbonitrile]
< 100	< 50	≤ 1000	< 500	≤ 1000	< 500	CC(C)N1CCC(c2cc3c(N[C@H](C)c4cccc(C(F)(F)C5CCN(C(C)C)CC5)c4)ncnc3nc2Cl)CC1 [Compound 268, (R)-7-chloro-N-(1-(3-(difluoro(1-isopropylpiperidin-4-yl)methyl)phenyl)ethyl)-6-(1-isopropylpiperidin-4-yl)pyrido[2,3-d] pyrimidin-4-amine]
< 100	< 50	≤ 1000	< 500	≤ 1000	< 500	Cc1nc(N[C@H](C)c2cccc(C(F)(F)C3CCN(C(C)C)CC3)c2)c2cc(C3CCN(C(C)C)CC3)c(Cl)nc2n1 [Compound 269, (R)-7-chloro-N-(1-(3-(difluoro(1-isopropylpiperidin-4-yl)methyl)phenyl)ethyl)-6-(1-isopropylpiperidin-4-yl)-2-methylpyrido[2,3-d] pyrimidin-4-amine]
< 100	< 50	≤ 1000	< 500	≤ 1000	< 500	COc1nc2nc(OC[C@H]3CCCN3C)nc(N[C@H](C)c3cccc(C(F)F)c3F)c2cc1C1(C#N)CC1 [Compound 270, 1-(4-(((R)-1-(3-(difluoromethyl)-2-fluorophenyl)ethyl)amino)-7-methoxy-2-(((R)-1-methylpyrrolidin-2-yl)methoxy)pyrido [2,3-d]pyrimidin-6-yl)cyclopropane-1-carbonitrile]
–	< 50	≤ 1000	–	≤ 1000	< 500	COc1nc2nc(C)nc(N[C@H](C)c3cccc(C(F)(F)C4CN(C)C4)c3)c2cc1N1CCS(=O)(=O)CC1 [Compound 272, (R)-4-(4-((1-(3-(difluoro(1-methylazetidin-3-yl)methyl)phenyl)ethyl)amino)-7-methoxy-2-methylpyrido[2,3-d]pyrimidin-6-yl)thiomorpholine 1,1-dioxide]
< 100	–	1000 to 10000	–	1000 to 10000	–	C#Cc1nc(N[C@H](C)c2cccc(C(F)F)c2F)c2cc(C3(C#N)CC3)c(OC)nc2n1 [Compound 276, (R)-1-(4-((1-(3-(difluoromethyl)-2-fluorophenyl)ethyl)amino)-2-ethynyl-7-methoxypyrido[2,3-d]pyrimidin-6-yl)cyclopropane-1-carbonitrile]
< 100	< 50	≤ 1000	–	≤ 1000	< 500	COc1nc2nc(C)nc(N[C@H](C)c3cccc(C(F)(F)CN4CCC4)c3F)c2cc1C1(C#N)CC1 [Compound 277, (R)-1-(4-((1-(3-(2-(azetidin-1-yl)-1,1-difluoroethyl)-2-fluorophenyl)ethyl)amino)-7-methoxy-2-methylpyrido [2,3-d]pyrimidin-6-yl)cyclopropane-1-carbonitrile]
< 100	–	> 10000	–	1000 to 10000	–	COc1nc2nc(OCC3COC3)nc(N[C@H](C)c3cccc(C(F)F)c3F)c2cc1C1(C#N)CC1 [Compound 278, (R)-1-(4-((1-(3-(difluoromethyl)-2-fluorophenyl)ethyl)amino)-7-methoxy-2-(oxetan-3-ylmethoxy)pyrido [2,3-d]pyrimidin-6-yl)cyclopropane-1-carbonitrile]
< 100	–	≤ 1000	< 500	≤ 1000	< 500	COc1nc2ncnc(N[C@H](C)c3cccc(C(F)(F)C4CN(C(C)C)C4)c3F)c2cc1C1CCS(=O)(=O)CC1 [Compound 283, (R)-4-(4-((1-(3-(difluoro(1-isopropylazetidin-3-yl)methyl)-2-fluorophenyl)ethyl)amino)-7-methoxypyrido[2,3-d]pyrimidin-6-yl)tetrahydro-2H-thiopyran-1,1-dioxide]
< 100	< 50	≤ 1000	< 500	≤ 1000	< 500	CCN1CCC(c2cc3c(N[C@H](C)c4cccc(C(F)(F)F)c4F)nc(C)nc3nc2OC)CC1 [Compound 288, (R)-6-(1-ethylpiperidin-4-yl)-N-(1-(2-fluoro-3-(trifluoromethyl)phenyl)ethyl)-7-methoxy-2-methylpyrido [2,3-d]pyrimidin-4-amine]
< 100	< 50	≤ 1000	< 500	≤ 1000	< 500	COc1nc2ncnc(N[C@H](C)c3cccc(C(F)(F)C4CCC(N(C)C)CC4)c3F)c2cc1C1CCS(=O)(=O)CC1 (stereo partly drawn) [Compound 289, (R)-4-(4-((1-(3-((4-(dimethylamino)cyclohexyl)difluoromethyl)-2-fluorophenyl)ethyl)amino)-7-methoxypyrido[2,3-d]pyrimidin-6-yl)tetrahydro-2H-thiopyran 1,1-dioxide]
< 100	< 50	≤ 1000	< 500	≤ 1000	< 500	CC(C)N1CCC(C(F)(F)c2cccc([C@@H](C)Nc3ncnc4nc(Cl)c(N5CCN(C(C)C)CC5)cc34)c2)CC1 [Compound 291, (R)-7-chloro-N-(1-(3-(difluoro(1-isopropylpiperidin-4-yl)methyl)phenyl)ethyl)-6-(4-isopropylpiperazin-1-yl)pyrido[2,3-d] pyrimidin-4-amine]
< 100	< 50	≤ 1000	< 500	≤ 1000	< 500	COc1nc2ncnc(N[C@H](C)c3cccc(C(C)(F)F)c3F)c2cc1N1CCS(=O)(=O)CC1 [Compound 292, (R)-4-(4-((1-(3-(1,1-difluoroethyl)-2-fluorophenyl)ethyl)amino)-7-methoxypyrido[2,3-d]pyrimidin-6-yl)thiomorpholine 1,1-dioxide]
< 100	< 50	≤ 1000	< 500	≤ 1000	< 500	Cc1nc(N[C@H](C)c2cccc(C(F)(F)C3CCN(C(C)C)CC3)c2)c2cc(N3CCN(C(C)C)CC3)c(Cl)nc2n1 [Compound 293, (R)-7-chloro-N-(1-(3-(difluoro(1-isopropylpiperidin-4-yl)methyl)phenyl)ethyl)-6-(4-isopropylpiperazin-1-yl)-2-methylpyrido[2,3-d] pyrimidin-4-amine]
< 100	< 50	≤ 1000	< 500	≤ 1000	< 500	Cc1nc(N[C@H](C)c2cccc(C(F)F)c2F)c2cc(C3(C#N)CC3)c(N3CCN(C)CC3)nc2n1 [Compound 295, (R)-1-(4-((1-(3-(difluoromethyl)-2-fluorophenyl)ethyl)amino)-2-methyl-7-(4-methylpiperazin-1-yl)pyrido[2,3-d]pyrimidin-6-yl)cyclopropanecarbonitrile]
< 100	–	1000 to 10000	–	≤ 1000	–	Cc1nc(N[C@H](C)c2cccc(C(F)F)c2F)c2cc(C3(C#N)CC3)c(OC[C@@H]3CC(F)(F)CN3C)nc2n1 [Compound 296, 1-(7-(((S)-4,4-difluoro-1-methylpyrrolidin-2-yl)methoxy)-4-(((R)-1-(3-(difluoromethyl)-2-fluorophenyl)ethyl)amino)-2-methylpyrido[2,3-d]pyrimidin-6-yl)cyclopropane-1-carbonitrile]
–	< 50	1000 to 10000	–	≤ 1000	< 500	Cc1nc(N[C@H](C)c2cccc(C(F)F)c2F)c2cc(C3(C#N)CC3)c(O[C@H]3CCOC3)nc2n1 [Compound 297, 1-(4-(((R)-1-(3-(difluoromethyl)-2-fluorophenyl)ethyl)amino)-2-methyl-7-(((S)-tetrahydrofuran-3-yl)oxy)pyrido[2,3-d]pyrimidin-6-yl)cyclopropane-1-carbonitrile]

Structure (SMILES)	IC50 (SOS1; [3]) [nM]	IC50 (SOS1; [4]) [nM]	IC50 [1, 5] [nM]	IC50 [1, 6] [nM]	IC50 [2, 7] [nM]	IC50 [2, 8] [nM]
COc1nc2nc(C)nc(N[C@H](C)c3cccc(C(F)(F)F)c3C)c2cc1C1(C#N)CCN(C(C)C)CC1 [Compound 285, (R)-1-isopropyl-4-(7-methoxy-2-methyl-4-((1-(2-methyl-3-(trifluoromethyl)phenyl)ethyl)amino)pyrido[2,3-d]pyrimidin-6-yl)piperidine-4-carbonitrile]	< 100	< 50	1000 to 10000	–	≤ 1000	–
